Results as given in BindingDB's records for doi:10.1124/jpet.102.040162 (Sanofi-SynthÉLabo Recherche, 2002).
Where “and” joins values, the source holds several entries; their conditions need not be identical. Equal entries are not always repeated. Square brackets hold non-standard residues; d marks the D form. Peptide text beside a SMILES is read from it. NMeF = CN[C@@H](Cc1ccccc1)C(=O)O

Experiments:
Neuromedin-K receptor [1] = molecular target: T1, Neuromedin-K receptor (Homo sapiens, UniProt P29371)
T1 sequence (P29371 whole entry): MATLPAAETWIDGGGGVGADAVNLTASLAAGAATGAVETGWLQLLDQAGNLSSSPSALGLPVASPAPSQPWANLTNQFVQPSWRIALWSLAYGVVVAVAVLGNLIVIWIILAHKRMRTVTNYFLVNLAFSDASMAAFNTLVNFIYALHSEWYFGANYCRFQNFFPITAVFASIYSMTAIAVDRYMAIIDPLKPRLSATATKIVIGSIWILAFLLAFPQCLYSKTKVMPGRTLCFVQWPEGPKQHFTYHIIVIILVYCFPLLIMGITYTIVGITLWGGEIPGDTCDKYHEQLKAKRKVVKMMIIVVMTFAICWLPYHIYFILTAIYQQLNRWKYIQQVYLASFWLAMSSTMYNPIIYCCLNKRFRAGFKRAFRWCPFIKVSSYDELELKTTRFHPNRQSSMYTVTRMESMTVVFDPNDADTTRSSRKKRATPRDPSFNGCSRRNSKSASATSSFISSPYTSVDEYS

Neuromedin-K receptor [2] = molecular target: T2, Neuromedin-K receptor (Meriones unguiculatus, UniProt Q2YHR0)
T2 sequence (Q2YHR0 whole entry): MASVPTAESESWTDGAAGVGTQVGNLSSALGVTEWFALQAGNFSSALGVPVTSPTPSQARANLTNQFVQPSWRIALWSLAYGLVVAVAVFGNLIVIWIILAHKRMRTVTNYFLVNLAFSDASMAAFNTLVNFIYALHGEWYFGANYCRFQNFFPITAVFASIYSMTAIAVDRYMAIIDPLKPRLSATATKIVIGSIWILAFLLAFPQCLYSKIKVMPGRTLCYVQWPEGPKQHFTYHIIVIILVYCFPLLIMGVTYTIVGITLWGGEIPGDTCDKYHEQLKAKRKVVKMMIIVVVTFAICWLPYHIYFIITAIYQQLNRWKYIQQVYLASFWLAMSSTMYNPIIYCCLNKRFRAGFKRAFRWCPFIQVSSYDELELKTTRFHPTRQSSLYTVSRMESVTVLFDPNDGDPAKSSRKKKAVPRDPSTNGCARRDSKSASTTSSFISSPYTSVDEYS

Neuromedin-K receptor [3] = molecular target: T3, Neuromedin-K receptor (Cavia porcellus, UniProt P30098)
T3 sequence (P30098 whole entry): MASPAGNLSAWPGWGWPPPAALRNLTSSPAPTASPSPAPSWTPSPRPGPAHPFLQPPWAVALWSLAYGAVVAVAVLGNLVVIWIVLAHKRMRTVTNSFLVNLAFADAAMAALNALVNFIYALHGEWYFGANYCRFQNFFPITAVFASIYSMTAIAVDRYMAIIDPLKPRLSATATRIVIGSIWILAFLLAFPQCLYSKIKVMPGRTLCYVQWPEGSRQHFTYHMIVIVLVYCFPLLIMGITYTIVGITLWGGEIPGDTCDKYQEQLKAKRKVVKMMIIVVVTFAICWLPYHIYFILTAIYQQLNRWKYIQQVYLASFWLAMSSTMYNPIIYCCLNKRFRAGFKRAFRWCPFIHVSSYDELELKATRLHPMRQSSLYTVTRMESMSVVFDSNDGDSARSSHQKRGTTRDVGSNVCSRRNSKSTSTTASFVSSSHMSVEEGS

Neuromedin-K receptor [4] = molecular target: T4, Neuromedin-K receptor (Mus musculus, UniProt P47937)
T4 sequence (P47937 whole entry): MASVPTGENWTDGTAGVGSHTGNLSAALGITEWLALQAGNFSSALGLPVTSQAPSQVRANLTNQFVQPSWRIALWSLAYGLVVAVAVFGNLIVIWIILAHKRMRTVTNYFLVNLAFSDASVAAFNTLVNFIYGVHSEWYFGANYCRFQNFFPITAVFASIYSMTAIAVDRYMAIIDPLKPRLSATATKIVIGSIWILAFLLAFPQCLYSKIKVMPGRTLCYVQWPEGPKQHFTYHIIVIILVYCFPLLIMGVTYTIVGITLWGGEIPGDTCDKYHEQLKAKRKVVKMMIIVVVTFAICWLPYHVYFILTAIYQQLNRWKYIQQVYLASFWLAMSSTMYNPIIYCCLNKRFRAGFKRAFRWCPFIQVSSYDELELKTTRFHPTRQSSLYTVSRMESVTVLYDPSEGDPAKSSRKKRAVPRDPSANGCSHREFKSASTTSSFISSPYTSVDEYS

Substance-K receptor [5] = molecular target: T5, Substance-K receptor (Cavia porcellus, UniProt Q64077)
T5 sequence (Q64077 whole entry): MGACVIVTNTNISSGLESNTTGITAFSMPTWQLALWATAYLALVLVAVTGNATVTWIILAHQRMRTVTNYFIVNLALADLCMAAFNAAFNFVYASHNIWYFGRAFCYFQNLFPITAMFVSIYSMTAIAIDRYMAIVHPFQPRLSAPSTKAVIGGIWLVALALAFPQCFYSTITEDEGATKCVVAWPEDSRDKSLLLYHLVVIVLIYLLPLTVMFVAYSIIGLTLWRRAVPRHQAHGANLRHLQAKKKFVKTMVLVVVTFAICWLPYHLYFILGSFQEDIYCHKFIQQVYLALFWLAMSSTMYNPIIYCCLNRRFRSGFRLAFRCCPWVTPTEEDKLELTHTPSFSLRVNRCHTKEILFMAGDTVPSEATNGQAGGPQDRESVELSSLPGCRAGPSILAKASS

Substance-P receptor [6] = molecular target: Substance-P receptor (Rattus norvegicus, UniProt P14600)
Sequence of Substance-P receptor (Rattus norvegicus, UniProt P14600) (P14600 whole entry): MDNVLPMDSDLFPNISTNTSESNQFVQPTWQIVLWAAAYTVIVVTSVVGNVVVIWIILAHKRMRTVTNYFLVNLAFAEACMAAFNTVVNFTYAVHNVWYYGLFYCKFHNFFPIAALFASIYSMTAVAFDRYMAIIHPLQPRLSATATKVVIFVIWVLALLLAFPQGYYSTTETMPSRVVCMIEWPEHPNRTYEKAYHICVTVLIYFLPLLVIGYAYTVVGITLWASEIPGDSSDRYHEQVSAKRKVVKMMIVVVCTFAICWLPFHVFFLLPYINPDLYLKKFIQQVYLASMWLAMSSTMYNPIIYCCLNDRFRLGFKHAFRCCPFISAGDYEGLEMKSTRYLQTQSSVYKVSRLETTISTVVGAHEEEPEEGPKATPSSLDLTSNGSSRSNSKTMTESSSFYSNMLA

Substance-K receptor [7] = molecular target: T6, Substance-K receptor (Homo sapiens, UniProt P21452)
T6 sequence (P21452 whole entry): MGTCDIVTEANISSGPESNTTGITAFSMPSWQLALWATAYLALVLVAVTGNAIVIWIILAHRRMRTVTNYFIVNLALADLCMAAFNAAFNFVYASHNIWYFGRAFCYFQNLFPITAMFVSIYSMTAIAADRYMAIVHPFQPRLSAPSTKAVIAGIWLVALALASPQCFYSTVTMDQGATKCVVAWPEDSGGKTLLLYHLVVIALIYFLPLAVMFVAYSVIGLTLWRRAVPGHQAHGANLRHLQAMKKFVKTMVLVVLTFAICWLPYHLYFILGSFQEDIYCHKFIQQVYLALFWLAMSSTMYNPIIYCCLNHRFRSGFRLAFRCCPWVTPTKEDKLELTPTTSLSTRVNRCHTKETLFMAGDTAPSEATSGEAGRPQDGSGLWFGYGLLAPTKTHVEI

Substance-P receptor [8] = molecular target: Substance-P receptor (Cavia porcellus, UniProt P30547)
Sequence of Substance-P receptor (Cavia porcellus, UniProt P30547) (P30547 whole entry): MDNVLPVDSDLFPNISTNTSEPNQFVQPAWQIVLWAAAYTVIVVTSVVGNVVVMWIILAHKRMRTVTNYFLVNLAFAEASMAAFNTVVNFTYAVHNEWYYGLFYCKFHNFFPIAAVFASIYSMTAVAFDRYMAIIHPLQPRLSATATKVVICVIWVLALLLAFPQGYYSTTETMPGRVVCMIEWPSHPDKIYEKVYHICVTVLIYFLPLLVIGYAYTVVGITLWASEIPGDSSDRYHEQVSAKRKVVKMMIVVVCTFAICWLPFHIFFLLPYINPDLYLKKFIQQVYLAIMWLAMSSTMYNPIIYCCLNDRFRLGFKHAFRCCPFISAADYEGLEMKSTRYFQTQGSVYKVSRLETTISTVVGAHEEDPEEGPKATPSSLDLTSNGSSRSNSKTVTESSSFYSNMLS

Substance-K receptor [9] = molecular target: T7, Substance-K receptor (Rattus norvegicus, UniProt P16610)
T7 sequence (P16610 whole entry): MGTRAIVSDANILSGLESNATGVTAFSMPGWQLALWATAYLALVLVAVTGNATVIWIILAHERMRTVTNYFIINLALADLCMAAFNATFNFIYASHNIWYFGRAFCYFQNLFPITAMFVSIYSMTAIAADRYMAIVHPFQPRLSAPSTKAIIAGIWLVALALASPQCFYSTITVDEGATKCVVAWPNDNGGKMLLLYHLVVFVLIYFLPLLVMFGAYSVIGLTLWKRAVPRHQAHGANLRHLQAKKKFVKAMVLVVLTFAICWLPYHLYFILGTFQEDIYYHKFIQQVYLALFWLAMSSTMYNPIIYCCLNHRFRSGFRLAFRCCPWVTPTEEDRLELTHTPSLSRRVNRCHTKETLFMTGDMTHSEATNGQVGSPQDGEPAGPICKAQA

Structure (SMILES)	Ki (Neuromedin-K receptor [1]) [nM]	Ki (Neuromedin-K receptor [2]) [nM]	Ki (Neuromedin-K receptor [3]) [nM]	Ki (Neuromedin-K receptor [4]) [nM]	Ki (Substance-K receptor [5]) [nM]	Ki (Substance-P receptor [6])	Ki (Substance-K receptor [7]) [nM]	Ki (Substance-P receptor [8]) [nM]	Ki (Substance-K receptor [9]) [nM]
CSCC[C@H](NC(=O)[C@H](CC(C)C)NC(=O)CNC(=O)[C@H](Cc1ccccc1)N(C)C(=O)[C@H](Cc1ccccc1)NC(=O)[C@H](Cc1ccccc1)NC(=O)[C@H](CC(=O)O)NC(=O)[C@H](Cc1cnc[nH]1)NC(=O)[C@H](CCSC)NC(=O)[C@@H](N)CC(=O)O)C(N)=O [NKB [MePhe7]] (H-DMHDFF[NMeF]GLM-NH2)	0.34	0.16	0.43	0.053	–	–	–	–	–
CSCC[C@H](NC(=O)[C@H](CC(C)C)NC(=O)CNC(=O)[C@@H](NC(=O)[C@H](Cc1ccccc1)NC(=O)[C@H](CO)NC(=O)[C@H](CC(=O)O)NC(=O)[C@@H](NC(=O)[C@H](CCCCN)NC(=O)[C@@H](N)Cc1cnc[nH]1)[C@@H](C)O)C(C)C)C(N)=O [Neurokinin alpha]	–	–	–	–	2.3	–	–	–	–
CC(C)(C(N)=O)C1CCN(CCC2(c3ccc(Cl)c(Cl)c3)CN(C(=O)Cc3cc(C(F)(F)F)cc(C(F)(F)F)c3)CCO2)CC1 (centres undefined) [SSR240600]	206	544	21	> 10000	71	1.07 nM and 1.15 nM	24	0.23	34
